Laboratory results: patent US11833159B2, “Non-hormonal steroid modulators of NF-kB for treatment of disease” (ReveraGen BioPharma, Inc., priority 2008, dated 2023)

Columns and labels:
mdx mice [1] = test: mdx mouse model: histological evaluation (H&E) of gastrocnemius muscle; type: in vivo; conditions: 3 months per oral in feed, Examples 20 and 40 mg/kg/day; for Inflammation of skeletal muscle (H&E histology): in comparison to untreated and prednisolone treated mdx mice; for Degeneration of skeletal muscle (H&E histology) / Regeneration / regenerating muscle fibers (H&E histology): prednisolone 5 mg/kg/day
Description: (§1) Separate groups (n=12-14) of mdx mice were treated with prednisolone (5 mg/kg/day; per oral in feed), Example 1 (20 and 40 mg/kg/day; per oral in feed) and Example 2 (20 and 40 mg/kg/day; per oral in feed) for 3 months. All mice underwent 30 min biweekly treadmill exercise during the treatment duration to unmask the mild disease phenotype of mdx mouse model.
Hematoxylin and Eosin staining of gastrocnemius muscle of untreated mdx mice show significant degeneration and inflammation.

mdx mice [2] = test: mdx mouse model: in vitro force contractions of EDL muscle; type: in vivo; conditions: 5 mg/kg/day per oral in feed
Description: as §1
The distal tendon of the extensor digitorum longus (EDL) muscle was tied securely to the lever arm of a servomotor/force transducer (model 305B, Aurora Scientific, Richmond Hill, ON, Canada) and the proximal tendon to a tissue clamp. Muscles were stimulated between two platinum electrodes. […] The muscle length was then measured with calipers and after removal of the muscle from the bath the mass of the muscle was determined. For each muscle, the optimum fiber length (Lf) was calculated by multiplying Lo by a previously determined Lf/Lo ratio of 0.45. Total muscle fiber cross-sectional area was determined by dividing the wet mass by the product of Lf and the density of mammalian skeletal muscle (1.06 mg/mm^3). Maximum isometric specific force (sPo) was determined by dividing Po by the total muscle fiber cross-sectional area.

[3] = In vivo mdx mouse model of dystrophy: body weight and muscle mass; conditions: 5 mg/kg/day per oral in feed, at 33.8 weeks age, P<0.05
Description: as §1

Compound | Inflammation of skeletal muscle (H&E histology) (mdx mice [1]) | Degeneration of skeletal muscle (H&E histology) (mdx mice [1]) | Regeneration / regenerating muscle fibers (H&E histology) (mdx mice [1]) | Specific force of EDL muscle, difference to untreated group (mdx mice [2]) | Body weight versus untreated mice [3]
C[C@]12C=CC(=O)C=C1CCC1C2=CC[C@@]2(C)C1CC[C@]2(O)C(=O)CO (stereo partly drawn) [Example 2, (10S,13S,17R)-17-hydroxy-17-(2-hydroxyacetyl)-10,13-dimethyl-6,7,8,10,12,13,14,15,16,17-decahydro-3H-cyclopenta[a]phenanthren-3-one] | significant decrease | significant decrease | increase in regenerating muscle fibers |  | 
C[C@]12C=CC(=O)C=C1CC[C@@H]1[C@@H]2[C@@H](O)C[C@@]2(C)[C@H]1CC[C@]2(O)C(=O)CO [prednisolone, reference compound] |  | appeared to increase degeneration | decrease in regeneration | no statistically significant (P<0.05) difference | significantly lower body weight
C[C@]12CCC(=O)C=C1CCC1C2=CC[C@@]2(C)C1CC[C@]2(O)C(=O)CO (stereo partly drawn) [Example 1, (10S,13S,17R)-17-hydroxy-17-(2-hydroxyacetyl)-10,13-dimethyl-6,7,8,10,12,13,14,15,16,17-decahydro-1H-cyclopenta[a]phenanthren-3(2H)-one] | significant decrease | significant decrease | increase in regenerating muscle fibers |  | 
